Assay results from patent US20230285405A1, “Pharmaceuticals for Treating or Preventing Nidoviruses and Picornaviruses” (priority 2020, published 2023).
Counter-ions that a name gives are not always drawn. Like-named read-outs stand apart in the source and are kept apart here.

What was measured:
OC43 = test: Drug screening: OC43 nucleoprotein staining in infected A549-mRuby cells; format: cell-based, human beta coronavirus OC43; settings: for activity at 10 µM: Betacoronavirus 1, OC43, 96 h
Protocol: A549-mRuby cells were seeded (3,000 cells per well) in nine 384-well plates using Multidrop combi. Cells were seeded in a final volume of 30 μl with DMEM+10% BCS. The following day, 20 μl of OC43 were added (MOI 0.3) and incubated at 33° C., 5% CO2 for 1 hour. 50 nl from the Selleck FDA-approved drug library (cat #L1300, Selleck) were added (1:1,000 dilution). Two columns (32 wells) were left uninfected and two columns were treated with DMSO and virus (no drug control). Cells were imaged using the IncuCyte S3 to measure cell numbers at day 0. Cells were incubated for 4 days at 33° C., 5% CO2 and were stained for OC43 nucleoprotein. All the following steps were performed at room temperature. Cells were fixed in 50 μl 4% PFA/PBS for 15 min, blocked with 50 μl 10% BSA+0.5% Triton X-100 in PBS for 30 minutes, stained with 50 μl anti-OC43 (cat #MAB9013, Milipore) diluted 1:2,000 in 2% BSA+0.1% Triton X-100 in PBS for 1 hour, washed with 50 μl PBS three times, stained with anti-mouse-AlexaFluor488 diluted 1:1,000 in 2% BSA+0.1% Triton X-100 in PBS for 1 hour, washed with 50 μl PBS three times and imaged on the IncuCyte S3 (day 4). The screen was performed twice.
(§1) The following parameters were extracted from the images: number of cells at day 0, number of cells at day 4 and total OC43 staining intensity at day 4. For analysis, OC43 staining intensity was normalized to the number of cells in the well and further normalized to the mean of the no drug controls, which was set to 100. […] For each plate, a drug was considered as a putative hit if it reduced OC43 staining by over 3 standard deviations from the mean of the no drug controls. Drugs were considered hits if they were not toxic and reduced OC43 staining by over 3 standard deviations in both repeats.
(§2) A library of 1,900 clinically used drugs was screened, the drugs either approved for human use or having extensive safety data in humans (Phase 2 or 3 clinical trials), for their ability to inhibit OC43 infection of the human lung epithelial cell line A549 (expressing an H2B-mRuby nuclear reporter). One day after plating, cells were infected at an MOI of 0.3, incubated at 33° C. for 1 hour and drugs were added to a final concentration of 10 μM. Cells were then incubated at 33° C. for 4 days, fixed and stained for the presence of the viral nucleoprotein. The cells were imaged at day 0 (following drug addition) and day 4 (after staining) to determine the drugs effect on cell growth and OC43 infection.

A549-mRuby cells = test: Drug screening: effect on cell growth (cell number day 4 / day 0); settings: 10 μM drug; for Growth_1: number of cells at day 4 divided by number of cells at day 0 / toxic_1: repeat #1; for Growth_2: number of cells at day 4 divided by number of cells at day 0 / toxic_2: repeat #2
Protocol: A549-mRuby cells were seeded (3,000 cells per well) in nine 384-well plates using Multidrop combi. Cells were seeded in a final volume of 30 μl with DMEM+10% BCS. The following day, 20 μl of OC43 were added (MOI 0.3) and incubated at 33° C., 5% CO2 for 1 hour. 50 nl from the Selleck FDA-approved drug library (cat #L1300, Selleck) were added (1:1,000 dilution). Two columns (32 wells) were left uninfected and two columns were treated with DMSO and virus (no drug control). Cells were imaged using the IncuCyte S3 to measure cell numbers at day 0. Cells were incubated for 4 days at 33° C., 5% CO2 and were stained for OC43 nucleoprotein. All the following steps were performed at room temperature. […] The screen was performed twice.
as §1, §2

[1] = 10 μM drug, MOI 0.3, 4 days, normalized to no-drug controls in the same plate, repeat #1, read-out: OC43_1: % staining of OC43 in screen repeat #1
[2] = 10 μM drug, MOI 0.3, 4 days, normalized to no-drug controls in the same plate, repeat #2, read-out: OC43_2: % staining of OC43 in screen repeat #2
[3] = 10 μM drug, MOI 0.3, 4 days, OC43 staining normalized to no-drug controls, mean of the two screen repeats, read-out: OC43_mean
[4] = 10 μM drug, MOI 0.3, 4 days, OC43 staining normalized to no-drug controls, mean of the two screen repeats
[5] = 10 μM drug, MOI 0.3, 4 days, normalized to no-drug controls in the same plate, repeat #1
[6] = 10 μM drug, MOI 0.3, 4 days, normalized to no-drug controls in the same plate, repeat #2

| Structure (SMILES) | hit_1 (OC43; 10 μM drug, repeat #1) | hit_2 (OC43; 10 μM drug, repeat #2) | activity at 10 µM (OC43; [1]) [%] | activity at 10 µM (OC43; [2]) [%] | activity at 10 µM (OC43; read-out: OC43_mean) [%] | Growth_1: number of cells at day 4 divided by number of cells at day 0 (A549-mRuby cells) | toxic_1 (A549-mRuby cells) | Growth_2: number of cells at day 4 divided by number of cells at day 0 (A549-mRuby cells) | toxic_2 (A549-mRuby cells) | activity at 10 µM (OC43; [3]) [%] | Growth_1: number of cells at day 4 divided by number of cells at day 0 (A549-mRuby cells; Dihydrate) | Growth_2: number of cells at day 4 divided by number of cells at day 0 (A549-mRuby cells; Dihydrate) | OC43_mean (OC43; [4]) [%] | OC43_1: % staining of OC43 in screen repeat #1 (OC43; [5]) [%] | OC43_2: % staining of OC43 in screen repeat #2 (OC43; [6]) [%] |
| --- | --- | --- | --- | --- | --- | --- | --- | --- | --- | --- | --- | --- | --- | --- | --- |
| CCN(CCCc1ccccc1)CCCc1ccccc1 [Alverine Citrate] | 1 | 1 | 22.1 | 35.3 | 28.7 | 3.7 | 0 | 4.0 | 0 | – | – | – | – | – | – |
| CCCCc1oc2ccccc2c1C(=O)c1cc(I)c(OCCN(CC)CC)c(I)c1 [Amiodarone HCl] | 1 | 1 | 18.8 | 26.9 | – | 4.6 | – | 5.4 | – | 22.8 | – | – | – | – | – |
| CN(C)CCC=C1c2ccccc2CCc2ccccc21 [Amitriptyline HCl] | 1 | 1 | 11.2 | 34.3 | – | 3.7 | 0 | 4.1 | 0 | 22.8 | – | – | – | – | – |
| CN(C)N(C)C(=O)[C@@]1(Cc2ccccc2)CCCN(C(=O)[C@@H](Cc2c[nH]c3ccccc23)NC(=O)C(C)(C)N)C1 [Anamorelin] | 1 | 1 | 32 | 45.6 | – | 5.2 | 0 | 5.5 | 0 | 38.8 | – | – | – | – | – |
| CC[C@H]1OC(=O)[C@H](C)[C@@H](O[C@H]2C[C@@](C)(OC)[C@@H](O)[C@H](C)O2)[C@H](C)[C@@H](O[C@@H]2O[C@H](C)C[C@H](N(C)C)[C@H]2O)[C@](C)(O)C[C@@H](C)CN(C)[C@H](C)[C@@H](O)[C@]1(C)O [Azithromycin Dihydrate] | 1 | 1 | 20.5 | 15.9 | – | – | 0 | – | 0 | 18.2 | 5.4 | 5.0 | – | – | – |
| CC[C@H]1OC(=O)[C@H](C)[C@@H](O[C@H]2C[C@@](C)(OC)[C@@H](O)[C@H](C)O2)[C@H](C)[C@@H](O[C@@H]2O[C@H](C)C[C@H](N(C)C)[C@H]2O)[C@](C)(O)C[C@@H](C)CN(C)[C@H](C)[C@@H](O)[C@]1(C)O [Azithromycin] | – | – | – | – | – | 4.0 | – | 4.4 | – | – | – | – | 23.4 | 20.4 | 26.4 |
| CCC(=O)OCC(=O)[C@@]1(OC(=O)CC)[C@@H](C)C[C@H]2[C@@H]3CCC4=CC(=O)C=C[C@]4(C)[C@@]3(Cl)[C@@H](O)C[C@@]21C [Beclomethasone dipropionate] | 1 | 1 | 38.3 | 29 | – | 3.4 | 0 | 4.6 | 0 | 33.6 | – | – | – | – | – |
| CN1C2CCC1CC(OC(c1ccccc1)c1ccccc1)C2.CS(=O)(=O)O (centres unmarked) [Benztropine mesylate] | 1 | 1 | 7.4 | 12.8 | – | 4.4 | 0 | 5.1 | 0 | 10.1 | – | – | – | – | – |
| CN(C)CCCOc1nn(Cc2ccccc2)c2ccccc12 [Benzydamine HCl] | 1 | 1 | 26.2 | 25.6 | – | 4.9 | 0 | 4.6 | 0 | 25.9 | – | – | – | – | – |
| COc1ccc(NC(=O)c2ccc(C(=N)N(C)C)cc2)c(C(=O)Nc2ccc(Cl)cn2)c1 [Betrixaban maleate] | 1 | 1 | 32 | 21.8 | – | 4.6 | 0 | 5.7 | 0 | 26.9 | – | – | – | – | – |
| COc1ccc(NC(=O)c2ccc(C(=N)N(C)C)cc2)c(C(=O)Nc2ccc(Cl)cn2)c1 [Betrixaban] | 1 | 1 | – | – | – | 5.3 | 0 | 5.5 | 0 | – | – | – | 32.0 | 30.2 | 33.7 |
| CCCC1O[C@@H]2C[C@H]3[C@@H]4CCC5=CC(=O)C=C[C@]5(C)[C@H]4[C@@H](O)C[C@]3(C)[C@]2(C(=O)CO)O1 (some centres unmarked) [Budesonide] | 1 | 1 | 20.8 | 36.9 | – | 3.9 | 0 | 4.0 | 0 | 28.8 | – | – | – | – | – |
| COc1ccccc1OCCNCC(O)COc1cccc2[nH]c3ccccc3c12 (centres unmarked) [Carvedilol] | 1 | 1 | 20.1 | 29.1 | – | 4.5 | 0 | 3.1 | 0 | 24.6 | – | – | – | – | – |
| CCN(CC)CCCC(C)Nc1ccnc2cc(Cl)ccc12 (centres unmarked) [Chloroquine Phosphate] | 1 | 1 | 11.3 | 13.1 | 12.2 | – | 0 | – | 0 | – | – | – | – | – | – |
| CCCCOc1cc(C(=O)NCCN(CC)CC)c2ccccc2n1 [Cinchocaine] | 1 | 1 | 18.9 | 64.3 | – | 4.3 | 0 | 4.2 | 0 | 41.6 | – | – | – | – | – |
| COc1cc(N)c(Cl)cc1C(=O)NC1CCN(CCCOc2ccc(F)cc2)CC1OC (centres unmarked) [Cisapride] | 1 | 1 | 28.5 | 22.1 | – | 4.1 | 0 | 4.5 | 0 | 25.3 | – | – | – | – | – |
| C=C[C@H]1C[N@@]2CC[C@H]1C[C@@H]2[C@@H](O)c1ccnc2ccc(OC)cc12 [Quinidine sulfate] | 1 | 1 | 25.1 | 47.9 | – | – | – | – | – | – | – | – | – | – | – |
